IC50 data for 58 compounds are collected here from US10294236B2, “Compounds as rearranged during transfection (RET) inhibitors” (GLAXOSMITHKLINE INTELLECTUAL PROPERTY DEVELOPMENT LIMITED, priority 2014, dated 2019).

Bounds are passed on as bounds.

The target in the assay is T1, Human RET kinase cytoplasmic domain (Homo sapiens, UniProt P07949).
T1 construct: made in house
T1 sequence (P07949 658-1114): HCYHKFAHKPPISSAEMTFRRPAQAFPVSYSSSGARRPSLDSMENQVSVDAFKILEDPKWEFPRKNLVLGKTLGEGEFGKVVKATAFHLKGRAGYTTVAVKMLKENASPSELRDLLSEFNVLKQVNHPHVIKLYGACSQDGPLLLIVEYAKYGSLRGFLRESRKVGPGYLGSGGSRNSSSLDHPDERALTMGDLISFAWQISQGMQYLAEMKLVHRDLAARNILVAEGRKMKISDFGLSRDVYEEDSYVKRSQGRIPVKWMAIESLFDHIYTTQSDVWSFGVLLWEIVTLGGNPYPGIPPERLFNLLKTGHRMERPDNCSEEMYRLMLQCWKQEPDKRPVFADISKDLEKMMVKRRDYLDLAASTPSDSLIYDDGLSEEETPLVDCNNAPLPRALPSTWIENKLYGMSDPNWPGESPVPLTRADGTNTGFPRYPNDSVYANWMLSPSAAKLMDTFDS
Description: RET kinase enzymatic assay. The format is biochemical. Put shortly: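 GST-RET, 0.2 nM in 2× enzyme mix (HEPES, CHAPS, BSA, DTT), preincubated with inhibitor 30 min at 23 °C. Reaction for 1 h at 23 °C after adding 2× substrate mix: 20 μM ATP, 20 mM MgCl2, 1 μM biotinylated peptide. Single wells per concentration; IC50 from sigmoidal dose-response fit.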

One may read the IC50 as the concentration needed to halve the response being measured. A high value points to a need for much substance. For the compound `CCOc1cc(-c2ncc(NC(=O)Nc3cc(C(=O)NCCN(C)C)cc(C(F)(F)F)c3)c(C)n2)c[nH]c1=O` [Example 91], the IC50 was less than 100 nM.
Next, `CCOc1cc(-c2ccc(NC(=O)Nc3cnc(OC(C)C)c(C(F)(F)F)c3)c(F)c2)c[nH]c1=O` [Example 92]: less than 100 nM; `CCOc1cc(-c2ccc(NC(=O)Nc3ccc(OC4(C)COC4)c(C(F)F)c3)c(F)c2)c[nH]c1=O` [Example 93]: less than 100 nM.
Next, `CC1(Oc2ccc(NC(=O)Nc3ccc(-c4c[nH]c(=O)c(O)c4)cc3F)cc2C(F)(F)F)COC1` [Example 94]: less than 100 nM; `CNc1cc(-c2ccc(NC(=O)Nc3ccc(OC4(C)COC4)c(C(F)(F)F)c3)c(F)c2)c[nH]c1=O` [Example 95]: less than 100 nM; `CCOc1cc(-c2ncc(NC(=O)Nc3ccc(OC4(C)COC4)c(C(F)(F)F)c3)c(C)n2)c[nH]c1=O` [Example 96]: less than 100 nM.
Next, `CCOc1cc(-c2cc(C)c(NC(=O)Nc3ccc(OC4(C)COC4)c(C(F)(F)F)c3)cn2)c[nH]c1=O` [Example 97]: less than 100 nM; `CCOc1ccc(NC(=O)Nc2ccc(-c3c[nH]c(=O)c4ccoc34)cc2F)cc1C(F)(F)F` [Example 98]: less than 100 nM.
`CCOc1cc(-c2ncc(NC(=O)Nc3cc(OCCN4CCOCC4)cc(C(F)(F)F)c3)c(C)n2)c[nH]c1=O` [Example 99] had an IC50 of less than 100 nM.
`COc1cc(-c2ccc(NC(=O)Nc3ccc(OC4(C)COC4)c(C(F)(F)F)c3)c(C)n2)c[nH]c1=O` [Example 100] gave an IC50 of less than 100 nM.
`CCOc1cc(Oc2ccc(NC(=O)Nc3ccc(OC4(C)COC4)c(C(F)(F)F)c3)cn2)c[nH]c1=O` [Example 101] had an IC50 of less than 100 nM.
In turn, `CCOc1cc(-c2ccc(NC(=O)Nc3ccc(OC4(C)COC4)c(C(F)(F)F)c3)c(CC)n2)c[nH]c1=O` [Example 102] returned a half-inhibitory concentration (IC50) of less than 100 nM.
`CCOc1cc(-c2cnc(NC(=O)Nc3ccc(OC4(C)COC4)c(C(F)(F)F)c3)c(F)c2)c[nH]c1=O` [Example 103]: the IC50 was less than 100 nM.
`CCOc1cc(-c2ccc(NC(=O)Nc3ccc(OC4(C)COC4)c(C(F)(F)F)c3)c(C3CC3)n2)c[nH]c1=O` [Example 104] displayed an IC50 of less than 100 nM.
Consider `CCOc1cc(-c2cnc(NC(=O)Nc3ccc(OC4(C)COC4)c(C(F)(F)F)c3)c(C)c2)c[nH]c1=O` [Example 105], for which the IC50 is less than 100 nM.
On to `CCOc1cc(-c2ccc(NC(=O)Nc3ccc(OC4(C)COC4)c(C(F)(F)F)c3)cn2)c[nH]c1=O` [Example 106], for which the IC50 is less than 100 nM.
Next, `O=C(Nc1ccc(F)c(C(F)(F)F)c1)Nc1ccc(-c2c[nH]c(=O)c(OCCCF)c2)cc1F` [Example 107]: less than 100 nM; `CCOc1cc(-c2cnc(NC(=O)Nc3ccc(OC4(C)COC4)c(C(F)(F)F)c3)c(C)n2)c[nH]c1=O` [Example 108]: less than 100 nM.
`CCOc1cc(-c2ncc(NC(=O)Nc3ccc(CN4CCC4)c(C(F)(F)F)c3)c(C)n2)c[nH]c1=O` [Example 109] showed an IC50 of less than 100 nM.
As for `CCOc1cc(-c2ccc(NC(=O)Nc3ccc(OC4(C)COC4)c(C(F)(F)F)c3)c(OC)n2)c[nH]c1=O` [Example 110], the figure is less than 100 nM; as for `CCOc1cc(-c2ncc(NC(=O)Nc3ccc(CN4CCCC4)c(C(F)(F)F)c3)c(C)n2)c[nH]c1=O` [Example 111], 100 to 500 nM; as for `CCOc1cc(-c2ccc(NC(=O)Nc3ccc(OC4(C)COC4)c(C(F)(F)F)c3)c(N(C)C)n2)c[nH]c1=O` [Example 112], 100 to 500 nM.
`CCOc1ccc(NC(=O)Nc2ccc(-c3ccc(=O)n(CC)c3)cc2F)cc1C(F)(F)F` [Example 113] had a 50% inhibitory concentration (IC50) of 100 to 500 nM.
Next, `CCOc1cc(-c2cnc(NC(=O)Nc3ccc(CN(C)C)c(C(F)(F)F)c3)c(C)n2)c[nH]c1=O` [Example 114]: 100 to 500 nM.
As for `CCOc1cc(-c2ccc(NC(=O)Nc3ccc(OC4(C)COC4)c(C(F)(F)F)c3)c(OC(C)C)n2)c[nH]c1=O` [Example 115], the figure is 500 to 10000 nM.
Next, `CCOc1cc(-c2ccc(NC(=O)Nc3ccc(C(C)O)c(C(F)(F)F)c3)c(F)c2)c[nH]c1=O` (stereo not shown) [Example 116]: less than 100 nM.
Compound `CCOc1cc(-c2ccc(NC(=O)Nc3ccc(OC4(C)CN(C)C4)c(C(F)(F)F)c3)c(F)c2)c[nH]c1=O` [Example 117] displayed an IC50 of less than 100 nM.
For the compound `CCOc1cc(-c2ccc(NC(=O)Nc3ccc(OC(C)(C)CO)c(C(F)(F)F)c3)c(F)c2)c[nH]c1=O` [Example 118], the IC50 was less than 100 nM.
As for `CCOc1cc(-c2ccc(NC(=O)Nc3ccc(OC4(C)COC4)c(C(F)(F)F)c3)c(F)c2F)c[nH]c1=O` [Example 119], the figure is less than 100 nM; as for `CCOc1cc(-c2ccc(NC(=O)Nc3ccc(C(C)(C)CO)c(C(F)(F)F)c3)c(F)c2)c[nH]c1=O` [Example 120], less than 100 nM.
`CC(C)Oc1ccc(NC(=O)Nc2ccc(-c3c[nH]c(=O)c(OCCCF)c3)cc2F)cc1C(F)(F)F` [Example 121] returned an IC50 of less than 100 nM.
`CCOc1cc(-c2ccc(NC(=O)Nc3ccc(OC(C)CO)c(C(F)(F)F)c3)c(F)c2)c[nH]c1=O` (stereo not shown) [Example 122] returned an IC50 of less than 100 nM.
Next, `CCOc1cc(-c2ccc(NC(=O)Nc3ccc(OC4(CO)CC4)c(C(F)(F)F)c3)c(F)c2)c[nH]c1=O` [Example 123]: less than 100 nM.
Consider `CCOc1cc(=O)[nH]cc1-c1ccc(NC(=O)Nc2ccc(OC3(C)COC3)c(C(F)F)c2)c(F)c1` [Example 124], for which the IC50 is less than 100 nM.
As for `CCOc1cc(-c2ccc(NC(=O)Nc3ccc(CC(F)(F)CO)c(C(F)(F)F)c3)c(F)c2)c[nH]c1=O` [Example 125], the IC50 is less than 100 nM.
Next, `CC1(Oc2ccc(NC(=O)Nc3ccc(-c4c[nH]c(=O)cc4OC(F)F)cc3F)cc2C(F)(F)F)COC1` [Example 126]: less than 100 nM; `CCOc1cc(-c2ccc(NC(=O)Nc3ccc(C(C)C#N)c(C(F)(F)F)c3)c(F)c2)c[nH]c1=O` (stereo not shown) [Example 127]: less than 100 nM.
`CCOc1cc(=O)[nH]cc1-c1ccc(NC(=O)Nc2cc(C(F)(F)F)ccc2F)c(F)c1` [Example 128]: the IC50 is less than 100 nM.
As for `CCOc1cc(-c2ccc(NC(=O)Nc3ccc(C(C)(C)O)c(C(F)(F)F)c3)c(F)c2)c[nH]c1=O` [Example 129], the figure is less than 100 nM; as for `CCOc1cc(-c2ccc(NC(=O)Nc3ccc(OC4(C)COC4)c(C(F)(F)F)c3)c(F)c2)c[nH]c1=O` [Example 130], less than 100 nM; as for `CCCOc1cc(-c2ccc(NC(=O)Nc3ccc(OC4(C)COC4)c(C(F)(F)F)c3)cc2)c[nH]c1=O` [Example 131], less than 100 nM.
As for `CCOc1cc(-c2ccc(NC(=O)Nc3ccc(CO)c(C(F)(F)F)c3)c(F)c2)c[nH]c1=O` [Example 132], the figure is less than 100 nM.
For `CCOc1cc(-c2ccc(NC(=O)Nc3ccc(OC4(C)COC4)c(C(F)(F)F)c3)cc2F)c[nH]c1=O` [Example 133], the IC50 was less than 100 nM.
`CCOc1cc(-c2ccc(NC(=O)Nc3ccc(OC4(CO)CCC4)c(C(F)(F)F)c3)c(F)c2)c[nH]c1=O` [Example 134] gave an IC50 of less than 100 nM.
`CCOc1cc(-c2ccc(NC(=O)Nc3ccc(C(C)(C)C#N)c(C(F)(F)F)c3)c(F)c2)c[nH]c1=O` [Example 135]: the IC50 was less than 100 nM.
As for `CC(C)Oc1cc(-c2ccc(NC(=O)Nc3ccc(OC4(C)COC4)c(C(F)(F)F)c3)c(F)c2)c[nH]c1=O` [Example 136], the figure is less than 100 nM.
`Cc1cc(-c2ccc(=O)[nH]c2)ccc1NC(=O)Nc1ccc(OC2(C)COC2)c(C(F)(F)F)c1` [Example 137] came in with an IC50 of less than 100 nM.
Next, `CCCOc1cc(-c2ccc(NC(=O)Nc3ccc(OC4(C)COC4)c(C(F)(F)F)c3)c(F)c2)c[nH]c1=O` [Example 138]: less than 100 nM; `CCOc1cc(-c2ccc(NC(=O)Nc3ccc(OC(C)(C)CF)c(C(F)(F)F)c3)c(F)c2)c[nH]c1=O` [Example 139]: less than 100 nM; `CCOc1cc(-c2ccc(NC(=O)Nc3ccc(OC4(C)COC4)c(C(F)(F)F)c3)cc2)c[nH]c1=O` [Example 140]: less than 100 nM.
As for `CCOc1cc(-c2ccc(NC(=O)Nc3cc(C(F)(F)F)ccc3O)c(F)c2)c[nH]c1=O` [Example 141], the figure is less than 100 nM; as for `CCOc1cc(-c2ccc(NC(=O)Nc3ccc(OCCO)c(C(F)(F)F)c3)c(F)c2)c[nH]c1=O` [Example 143], less than 100 nM.
`CCOc1cc(-c2ccc(NC(=O)Nc3ccc(OC4(C)CCN(C)C4)c(C(F)(F)F)c3)c(F)c2)c[nH]c1=O` (stereo not shown) [Example 144] yielded an IC50 of less than 100 nM.
Next, `CCOc1cc(-c2ccc(NC(=O)Nc3ccc(OCC(C)O)c(C(F)(F)F)c3)c(F)c2)c[nH]c1=O` (stereo not shown) [Example 145]: less than 100 nM; `CCOc1cc(-c2ccc(NC(=O)Nc3ccc(Cc4cnn(C)c4)c(C(F)(F)F)c3)c(F)c2)c[nH]c1=O` [Example 146]: less than 100 nM.
As for `CC1(Oc2ccc(NC(=O)Nc3ccc(-c4ccc(=O)[nH]c4)cc3F)cc2C(F)(F)F)COC1` [Example 147], the figure is less than 100 nM; as for `CCOc1cc(-c2ccc(NC(=O)Nc3cnc(OC4(C)COC4)c(C(F)(F)F)c3)c(F)c2)c[nH]c1=O` [Example 148], less than 100 nM.
As for `CCOc1cc(-c2ccc(NC(=O)Nc3ccc(OC4(C)CCC4)c(C(F)(F)F)c3)c(F)c2)c[nH]c1=O` [Example 149], the figure is less than 100 nM.
